The values that follow come from patent US5936101A, “Process for the preparation of 1,2-dioxetane compounds and novel sulfur-substituted 1,2-dioxetane compounds as intermediates” (Lumigen, Inc., priority 1997, dated 1999).

Series [1] is described as follows: Base-induced decay of chemiluminescence of hydroxyphenyl alkoxy or aryloxy dioxetanes in 221 buffer pH 9.6. It is filed as physicochemical. As to conditions: 0.2 M 221 buffer, 0.88 mM Mg+2, 1.0 mg/mL 1-trioctylphosphoniummethyl-4-tributylphosphoniummethylbenzene dichloride. How it is done:
The first order decay of chemiluminescence of dioxetanes 14-19 in 0.2 M 2-methyl-2-amino-1-propanol (221) buffer, pH 9.6 containing 0.88 mM Mg^+2 and 1.0 mg/mL of 1-trioctylphosphoniummethyl-4-tributylphosphoniummethylbenzene dichloride was measured at 37° C. in a Turner Designs (Sunnyvale, Calif.) model TD-20e luminometer. The half-lives of decay of chemiluminescence (t1/2) of hydroxy-dioxetanes correlate with the times required to reach the maximum light intensity (Imax) in the alkaline phosphatase-triggered decomposition of the corresponding phosphate-dioxetanes under the same conditions. […] It is expected that, for example, the phosphate derivatives of dioxetanes 14-19 as well as others which can be produced by the process described herein will be useful in alkaline phosphatase-linkedassays known in the art.

The nature of series [2]: Fluoride (TBAF in DMSO) induced chemiluminescence. The class given is physicochemical.
Series [3] in a line: Chemiluminescence on heating.
Series [4] in a line: Thermal stability / stability on silica of dioxetanes. As to conditions: TLC on silica versus NMR. It is filed as physicochemical. The source says: (c) Synthesis of 4-ethylthio-4-(3-pivaloyloxyphenyl)spiro-[1,2-dioxetane-3,2'-tricyclo[3.3.1.1^3,7 ]decane] (2).
Series [5] can be described thus: Base-induced decay of chemiluminescence of hydroxyphenyl alkylthio dioxetane in 221 buffer pH 9.6 with surfactant enhancers. The class given is physicochemical. As to conditions: for t1/2 (decay of chemiluminescence): 0.2 M 221 buffer, pH 9.6, 0.88 mM Mg+2, ambient temperature. As for the experimental part:
The first order decay of chemiluminescence of dioxetane 3 in 0.2 M 221 buffer, pH 9.6 containing 0.88 mM Mg^+2 and the surfactant enhancers shown below was measured at ambient temperature. Surfactant A is CTAB, B is poly(vinylbenzyltributylphosphonium chloride), C is poly(vinylbenzyltributylphosphonium chloride)-co-poly(vinylbenzyltrioctylphosphonium chloride), D is 1-trioctylphoniummethyl-4-tributylphosphonium-methylbenzene dichloride.

For the compound `Oc1cccc(C2(Oc3c(F)cccc3F)OOC23C2CC4CC(C2)CC3C4)c1` (centres unmarked) [Dioxetane 19, 4-(2',6'-Difluorophenoxy)-4-(3-hydroxyphenyl)spiro[1,2-dioxetane-3,2'-tricyclo[3.3.1.1^3,7]decane]], the “t1/2 37° C. (half-life of decay of chemiluminescence)” value in series [1] was determined as 1.76 min.

For the compound `COC1(c2cccc(O)c2)OOC12C1CC3CC(C1)CC2C3` (centres unmarked) [Dioxetane 6, 4-(3-Hydroxyphenyl)-4-methoxyspiro[1,2-dioxetane-3,2'-tricyclo[3.3.1.1^3,7]decane]], the chemiluminescence colour entry in series [2] (0.1 M TBAF in DMSO) is on record as “blue emission”. Still for that read-out and setting: the result for `COC1(c2cccc(OC(=O)C(C)(C)C)c2)OOC12C1CC3CC(C1)CC2C3` (centres unmarked) [Dioxetane 20, 4-Methoxy-4-(3-pivaloyloxyphenyl)spiro[1,2-dioxetane-3,2'-tricyclo-[3.3.1.1^3,7]decane]] reads “blue emission”; that for `CC(C)OC1(c2cccc(O)c2)OOC12C1CC3CC(C1)CC2C3` (centres unmarked) [Dioxetane 7, 4-Isopropoxy-4-(3-hydroxyphenyl)spiro[1,2-dioxetane-3,2'-tricyclo[3.3.1.1^3,7]decane]], “blue emission”. Consider `Oc1cccc(C2(OC(C(F)(F)F)C(F)(F)F)OOC23C2CC4CC(C2)CC3C4)c1` (centres unmarked) [Dioxetane 14, 4-(Hexafluoroisopropoxy)-4-(3-hydroxyphenyl)spiro[1,2-dioxetane-3,2'-tricyclo-[3.3.1.1^3,7]decane]], for which, in series [1], the “t1/2 37° C. (half-life of decay of chemiluminescence)” value is 0.16 min. For `OCCOC1(c2cccc(O)c2)OOC12C1CC3CC(C1)CC2C3` (centres unmarked) [Dioxetane 10, 4-(2-Hydroxyethoxy)-4-(3-hydroxyphenyl)spiro[1,2-dioxetane-3,2'-tricyclo-[3.3.1.1^3,7]decane]], the chemiluminescence colour entry in series [2] (0.1 M TBAF in DMSO) is recorded as “blue emission”. With `Oc1cccc(C2(OCC(Cl)Cl)OOC23C2CC4CC(C2)CC3C4)c1` (centres unmarked) [Dioxetane 16, 4-(2,2-Dichloroethoxy)-4-(3-hydroxyphenyl)spiro[1,2-dioxetane-3,2'-tricyclo-[3.3.1.1^3,7]decane]], in series [1], the “t1/2 37° C. (half-life of decay of chemiluminescence)” value is reported as 4.1 min.

`CC(C)(C)C(=O)Oc1cccc(C2(Sc3ccc(F)cc3)OOC23C2CC4CC(C2)CC3C4)c1` (centres unmarked) [Dioxetane 4, 4-(p-Fluorophenylthio)-4-(3-pivaloyloxyphenyl)spiro[1,2-dioxetane-3,2'tricyclo-[3.3.1.1^3,7]decane]]: the values for the chemiluminescence colour result in series [2] (0.1 M TBAF in DMSO) and in series [2] (excess TBAF in DMSO) were “yellow emission” and “red chemiluminescence”, respectively. `COC1(c2cccc(O[Si](c3ccccc3)(c3ccccc3)C(C)(C)C)c2)OOC12C1CC3CC(C1)CC2C3` (centres unmarked) [Dioxetane 22]: the chemiluminescence on heating result in series [3] is “blue chemiluminescence”. Also, the chemiluminescence colour entry in series [2] (0.1 M TBAF in DMSO) is recorded as “blue chemiluminescence”. As to `C=CCOC1(c2cccc(O)c2)OOC12C1CC3CC(C1)CC2C3` (centres unmarked) [Dioxetane 8, 4-(3-Hydroxyphenyl)-4-(2-propenyloxy) spiro[1,2-dioxetane-3,2'-tricyclo[3.3.1.1^3,7]decane]], in series [2] (0.1 M TBAF in DMSO), the chemiluminescence colour result was “blue emission”. Regarding `CCSC1(c2cccc(OC(=O)C(C)(C)C)c2)OOC12C1CC3CC(C1)CC2C3` (centres unmarked) [Dioxetane 2, 4-Ethylthio-4-(3-pivaloyloxyphenyl)spiro[1,2-dioxetane-3,2'-tricyclo-[3.3.1.1^3,7]decane]], the chemiluminescence colour result in series [2] (excess TBAF in DMSO) is “yellow chemiluminescence”. Also, the stability on silica entry in series [4] is “less stable on silica”. For the compound `CCSC1(c2cccc(O)c2)OOC12C1CC3CC(C1)CC2C3` (centres unmarked) [Dioxetane 1, 4-Ethylthio-4-(3-hydroxyphenyl)spiro[1,2-dioxetane-3,2'-tricyclo[3.3.1.1^3,7]decane]], the chemiluminescence colour result in series [2] (0.1 M TBAF in DMSO) was “yellow emission”; in series [2] (excess TBAF in DMSO) it was “yellow chemiluminescence”.

With `Oc1cccc(C2(OCC(F)(F)C(F)(F)F)OOC23C2CC4CC(C2)CC3C4)c1` (centres unmarked) [Dioxetane 17, 4-(3-Hydroxyphenyl)-4-(2,2,3,3,3-pentafluoropropoxy)spiro[1,2-dioxetane-3,2'-tricyclo[3.3.1.1^3,7]decane]], in series [1], the “t1/2 37° C. (half-life of decay of chemiluminescence)” value was found to be 3.4 min. As for `Oc1cccc(C2(SCC(F)(F)F)OOC23C2CC4CC(C2)CC3C4)c1` (centres unmarked) [Dioxetane 5, 4-(2,2,2-trifluoroethylthio)-4-(3-hydroxyphenyl)spiro[1,2-dioxetane-3,2'-tricyclo[3.3.1.1^3,7]decane]], the chemiluminescence colour result in series [2] (excess TBAF in DMSO) is given as “orange-yellow light”.

With `Oc1cccc(C2(OCC(Cl)(Cl)Cl)OOC23C2CC4CC(C2)CC3C4)c1` (centres unmarked) [Dioxetane 15, 4-(3-Hydroxyphenyl)-4-(2 2,2-trichloroethoxy)spiro[1,2-dioxetane-3,2'-tricyclo-[3.3.1.1^3,7]decane]], in series [1], the “t1/2 37° C. (half-life of decay of chemiluminescence)” value turned out to be 3.7 min.

On to `COC1(c2cccc(O[Si](C)(C)C(C)(C)C)c2)OOC12C1CC3CC(C1)CC2C3` (centres unmarked) [Dioxetane 21], for which the chemiluminescence on heating result in series [3] is listed as “blue chemiluminescence”. The chemiluminescence colour entry in series [2] (0.1 M TBAF in DMSO) is reported as “blue chemiluminescence”.

In the case of `Oc1cccc(C2(OCC(F)(F)C(F)(F)C(F)(F)F)OOC23C2CC4CC(C2)CC3C4)c1` (centres unmarked) [Dioxetane 18, 4-(2,2,3,3,4,4,4-Heptafluorobutoxy)-4-(3-hydroxyphenyl)spiro[1,2-dioxetane-3,2'-tricyclo[3.3.1.1^3,7]decane]], in series [1], the “t1/2 37° C. (half-life of decay of chemiluminescence)” value is listed as 4.9 min. As to `Oc1cccc(C2(Sc3ccc(F)cc3)OOC23C2CC4CC(C2)CC3C4)c1` (centres unmarked) [Dioxetane 3, 4-(p-Fluorophenylthio)-4-(3-hydroxyphenyl)spiro[1,2-dioxetane-3,2'-tricyclo-[3.3.1.1^3,7]decane]], the “t1/2 (decay of chemiluminescence)” value in series [5] (Surfactant A (CTAB) 0.41 g/L) turned out to be 11.2 min; in series [5] (Surfactant B (poly(vinylbenzyltributylphosphonium chloride)) 0.5 g/L), 4.2 min; in series [5] (Surfactant C (poly(vinylbenzyltributylphosphonium chloride)-co-poly(vinylbenzyltrioctylphosphonium chloride)) 0.5 g/L), 2.9 min; in series [5] (Surfactant D (1-trioctylphoniummethyl-4-tributylphosphonium-methylbenzene dichloride) 1.0 g/L), 2.0 min. The “kinetics for light emission compared with dioxetane 6 or alkoxy-substituted analogues” value in series [5] (alkaline amine buffer containing metal salts) is “comparable to dioxetane 6”. Consider `Oc1cccc(C2(Oc3ccccc3)OOC23C2CC4CC(C2)CC3C4)c1` (centres unmarked) [Dioxetane 11, 4-(3-Hydroxyphenyl)-4-phenoxyspiro[1,2-dioxetane-3,2'-tricyclo[3.3.1.1^3,7]decane]], for which the chemiluminescence colour result in series [2] (0.1 M TBAF in DMSO) was “blue emission”. On the same count and under the same terms, to `N#CCCOC1(c2cccc(O)c2)OOC12C1CC3CC(C1)CC2C3` (centres unmarked) [Dioxetane 9, 4-(2-Cyanoethoxy)-4-(3-hydroxyphenyl)spiro[1,2-dioxetane-3,2'-tricyclo-[3.3.1.1^3,7]decane]] belongs “blue emission”.
